According to US7655645B2, “Indole derivatives” (N.V. Organon, priority 2007, dated 2010):

The compounds below were run against T1, human CB1 receptor (Homo sapiens, UniProt P21554) (assay: In-vitro determination of efficacy and potency at the human CB1 receptor expressed in CHO cells (luciferase reporter assay)). Details: CHO cells expressing the human CB1 receptor and a luciferase reporter gene; 5 h incubation at 37° C.
T1 construct: expressed in transfected cells; host or cells: CHO (Chinese Hamster Ovary) cells
T1 sequence (P21554 whole entry): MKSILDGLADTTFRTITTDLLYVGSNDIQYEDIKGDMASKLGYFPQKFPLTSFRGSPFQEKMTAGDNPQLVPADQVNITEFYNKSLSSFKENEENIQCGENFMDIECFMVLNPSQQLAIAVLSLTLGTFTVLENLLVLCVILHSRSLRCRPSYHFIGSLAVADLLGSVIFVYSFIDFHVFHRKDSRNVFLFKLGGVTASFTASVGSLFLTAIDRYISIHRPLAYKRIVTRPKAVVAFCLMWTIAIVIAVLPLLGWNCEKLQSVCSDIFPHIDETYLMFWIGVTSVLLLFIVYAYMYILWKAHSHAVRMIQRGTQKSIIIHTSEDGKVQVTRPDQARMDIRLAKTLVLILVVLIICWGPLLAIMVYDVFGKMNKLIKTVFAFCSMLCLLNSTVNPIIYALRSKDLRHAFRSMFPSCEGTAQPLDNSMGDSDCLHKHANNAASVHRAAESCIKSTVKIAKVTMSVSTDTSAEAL
Type: cell-based
Procedure: Methods to determine receptor binding as well as in vitro biological activity of cannabinoid receptor modulators are well known in the art. In general, expressed receptor is contacted with the compound to be tested and binding or stimulation or inhibition of a functional response is measured.
In-Vitro Determination of Efficacy and Potency at the Human CB1 Receptor Expressed in CHO Cells
Chinese Hamster Ovary (CHO) cells expressing the human CB1 receptor and a luciferase reporter gene were suspended in phenol red/serum free DMEM/F-12 nut mix containing penicillin/streptomycin (50 U/50 μg/ml) and fungizone (1 μg/ml) and seeded into 96 well plates at a density of 3×10^4 cells per well (100 μl final volume). Cells were incubated overnight (approx. 18 h at 37° C., 5% CO2/95% air) prior to assay.
The test compound (10 mM solution in dimethylsulfoxide) was diluted in F12 Nut Mix to give a range of stock solutions from 0.11 mM to 0.11 nM. The stock solutions (10 μl) were added directly to the relevant wells. The plates were incubated at 37° C. for 5 h to allow agonist-induced expression of the luciferase enzyme. Under subdued light, LucLite substrate (Packard; reconstituted as per manufacturer's instructions; 100 μl) was added to each well. Plates were covered with Top Seal and then incubated at room temperature for 5 minutes before counting on the Packard TopCount (single photon counting, 0.01 minute count time, 5 minute count delay).
A “best-fit” curve was fitted by a minimum sum of squares method to the plot of counts per second (CPS) against compound concentration (M) to obtain an EC50 value.
Work on `NC(=O)CN1CCN(Cc2nc(-c3cn(CC4CCOCC4)c4c(Cl)cccc34)ns2)CC1` [Example 1, 3-({5-[4-(Carbamoylmethyl)piperazin-1-yl]methyl}-[1,2,4]-thiadiazol-3-yl)-7-chloro-1-(tetrahydropyran-4-yl)methyl-1H-indole] yielded an EC50 of 15.8 nM. Work on `CCNC(=O)CN1CCN(Cc2nc(-c3cn(CC4CCOCC4)c4c(Cl)cccc34)ns2)CC1` [Example 3, 7-Chloro-3-({5-[4-(ethylcarbamoyl)methylpiperazin-1-yl]methyl}-[1,2,4]-thiadiazol-3-yl)-1-(tetrahydropyran-4-yl)methyl-1H-indole] yielded an EC50 of 39.8 nM. `CCc1cccc2c(-c3nsc(CN4CCN(CC(=O)NC(C)C)CC4)n3)cn(CC3CCOCC3)c12` [Example 6b, 7-Ethyl-3-({5-[4-(N-isopropylcarbamoyl)methylpiperazin-1-yl]methyl}-[1,2,4]-thiadiazol-3-yl)-1-(tetrahydropyran-4-yl)methyl-1H-indole] was tested, and the EC50 was 50.1 nM. In the case of `CCc1cccc2c(-c3nsc(CN4CCN(CC(=O)OC)CC4)n3)cn(CC3CCOCC3)c12` [Example 6d, 7-Ethyl-3-({5-[4-(methoxycarbonylmethyl)piperazin-1-yl]methyl}-[1,2,4]-thiadiazol-3-yl)-1-(tetrahydropyran-4-yl)methyl-1H-indole], the EC50 is reported as 63.1 nM. `COc1cccc2c(-c3nsc(CN4CCN(CC(N)=O)CC4)n3)cn(CC3CCOCC3)c12` [Example 7a, 3-({5-[4-(Carbamoylmethyl)piperazin-1-yl]methyl}-[1,2,4]-thiadiazol-3-yl)-7-methoxy-1-(tetrahydropyran-4-yl)methyl-1H-indole] gave an EC50 of 100 nM. `NC(=O)CN1CCN(Cc2nc(-c3cn(CC4CCOCC4)c4c(Cl)cccc34)no2)CC1` [Example 11, 3-({5-[4-(Carbamoylmethyl)piperazin-1-yl]methyl}-[1,2,4]-oxadiazol-3-yl)-7-chloro-1-(tetrahydropyran-4-yl)methyl-1H-indole] gave an EC50 of 79.4 nM. In the case of `O=S1(=O)CCC(Cn2cc(-c3noc(CN4CCN(Cc5ncon5)CC4)n3)c3cccc(Cl)c32)CC1` [Example 17, 7-Chloro-3-({5-[4-([1,2,4]oxadiazol-3-ylmethyl)piperazin-1-yl]methyl}-[1,2,4]-oxadiazol-3-yl)-1-(1,1-dioxo-hexahydrothiopyran-4-yl)methyl-1H-indole], the EC50 is reported as 158 nM. Work on `NC(=O)CN1CCCN(Cc2nc(-c3cn(CC4CCOCC4)c4c(Cl)cccc34)no2)CC1` [Example 21d, 3-{5-[4-(Carbamoylmethyl)-homopiperazin-1-ylmethyl]-[1,2,4]-oxadiazol-3-yl}-7-chloro-1-[(tetrahydropyran-4-yl)methyl]-1H-indole] yielded an EC50 of 63.1 nM. Compound `CNC(=O)CN1CCN(Cc2nc(-c3cn(CC4CCOCC4)c4c(Cl)cccc34)no2)C[C@H]1CO` [Example 24, (S)-7-Chloro-3-[5-[3-hydroxymethyl-4-(methylcarbamoylmethyl)piperazin-1-ylmethyl]-[1,2,4]-oxadiazol-3-yl]-1-[(tetrahydropyran-4-yl)methyl]-1H-indole] has an EC50 of 12.6 nM. `NC(=O)CN1CCN(Cc2csc(-c3cn(CC4CCOCC4)c4c(Cl)cccc34)n2)CC1` [Example 31, 3-({4-[4-(Carbamoylmethyl)piperazin-1-yl]methyl}-[1,3]-thiazol-2-yl)-7-chloro-1-(tetrahydropyran-4-yl)methyl-1H-indole] showed an EC50 of 63.1 nM.
